Results as given in patent publication US8932597B2 (priority 2008, dated 2015).

What was measured:
HuM2e antibody 23K12 = assay type: binding, human
[1] = test system: anti-M2 human monoclonal antibody Z3G1; assay type: binding

Substance: 344 (SMLTEVETPIRNEWGCRCNDSSD; epitope peptide) [compound 344]
- Signal (peptides that bind to 23K21 and 8I10) (HuM2e antibody 23K12): 1622

Substance: 554 (CLLTEVGSLLTCV; epitope peptide) [compound 554]
- Signal (peptides that bind to 23K21 and 8I10) (HuM2e antibody 23K12): 902

Substance: 490 (SVLTEVETPIRNEWGCRCNDSSD; epitope peptide) [compound 490]
- Signal (peptides that bind to 23K21 and 8I10) (HuM2e antibody 23K12): 1109

Substance: 374 (SLLTECGCSLLTEC; epitope peptide) [compound 374]
- Signal (peptides that bind to 23K21 and 8I10) (HuM2e antibody 23K12): 1451

Substance: 567 (SLLTECGCSCLCEV; epitope peptide) [compound 567]
- Signal (peptides that bind to 23K21 and 8I10) (HuM2e antibody 23K12): 879

Substance: 531 (MSLCTEVGMSLLTEC; epitope peptide) [compound 531]
- Signal (peptides that bind to 23K21 and 8I10) (HuM2e antibody 23K12): 970

Substance: 325 (SLLTECGSLLTEV; epitope peptide) [compound 325]
- Signal (peptides that bind to 23K21 and 8I10) (HuM2e antibody 23K12): 1770

Substance: 540 (SLLTEHETPIRNEWGCRCNDSSD; epitope peptide) [compound 540]
- Signal (peptides that bind to 23K21 and 8I10) (HuM2e antibody 23K12): 942

Substance: 589 (CSLLTECGMSCLTEV; epitope peptide) [compound 589]
- Signal (peptides that bind to 23K21 and 8I10) (HuM2e antibody 23K12): 846

Substance: 574 (CLLTEVGSLLTEC; epitope peptide) [compound 574]
- Signal (peptides that bind to 23K21 and 8I10) (HuM2e antibody 23K12): 866

Substance: 518 (SYLTEVETPIRNEWGCRCNDSSD; epitope peptide) [compound 518]
- Signal (peptides that bind to 23K21 and 8I10) (HuM2e antibody 23K12): 1019

Substance: 305 (CSCLCEVGMSLLTEC; epitope peptide) [compound 305]
- Signal (peptides that bind to 23K21 and 8I10) (HuM2e antibody 23K12): 1925

Substance: 463 (CSLLTECGSLLTCV; epitope peptide) [compound 463]
- Signal (peptides that bind to 23K21 and 8I10) (HuM2e antibody 23K12): 1258

Substance: 558 (CSLLTECGMSCLCEC; epitope peptide) [compound 558]
- Signal (peptides that bind to 23K21 and 8I10) (HuM2e antibody 23K12): 897

Substance: 331 (MSLLTECGMSLLTCV; epitope peptide) [compound 331]
- Signal (peptides that bind to 23K21 and 8I10) (HuM2e antibody 23K12): 1690

Substance: 335 (CSCLCEVGCSLLTEC; epitope peptide) [compound 335]
- Signal (peptides that bind to 23K21 and 8I10) (HuM2e antibody 23K12): 1677

Substance: 530 (SLLTESETPIRNEWGCRCNDSSD; epitope peptide) [compound 530]
- Signal (peptides that bind to 23K21 and 8I10) (HuM2e antibody 23K12): 974

Substance: 550 (SLLTENETPIRNEWGCRCNDSSD; epitope peptide) [compound 550]
- Signal (peptides that bind to 23K21 and 8I10) (HuM2e antibody 23K12): 914

Substance: 497 (SLLTECGSCLCEC; epitope peptide) [compound 497]
- Signal (peptides that bind to 23K21 and 8I10) (HuM2e antibody 23K12): 1077

Substance: 475 (MSLLTECGMSLCTEV; epitope peptide) [compound 475]
- Signal (peptides that bind to 23K21 and 8I10) (HuM2e antibody 23K12): 1212

Substance: 376 (CSLLTECGMSLLTEC; epitope peptide) [compound 376]
- Signal (peptides that bind to 23K21 and 8I10) (HuM2e antibody 23K12): 1445

Substance: 391 (SNLTEVETPIRNEWGCRCNDSSD; epitope peptide) [compound 391]
- Signal (peptides that bind to 23K21 and 8I10) (HuM2e antibody 23K12): 1345

Substance: 539 (SLLTEYETPIRNEWGCRCNDSSD; epitope peptide) [compound 539]
- Signal (peptides that bind to 23K21 and 8I10) (HuM2e antibody 23K12): 950

Substance: 355 (SCLCECGCSLLTEV; epitope peptide) [compound 355]
- Signal (peptides that bind to 23K21 and 8I10) (HuM2e antibody 23K12): 1555

Substance: 521 (SLLTAVETPIRNEWGCRCNDSSD; epitope peptide) [compound 521]
- Signal (peptides that bind to 23K21 and 8I10) (HuM2e antibody 23K12): 1012

Substance: 307 (SLCTEVGCLCTCV; epitope peptide) [compound 307]
- Signal (peptides that bind to 23K21 and 8I10) (HuM2e antibody 23K12): 1907

Substance: 306 (CSLLTECGMSLLTCV; epitope peptide) [compound 306]
- Signal (peptides that bind to 23K21 and 8I10) (HuM2e antibody 23K12): 1918

Substance: 340 (MSCLCECGCSLLTEC; epitope peptide) [compound 340]
- Signal (peptides that bind to 23K21 and 8I10) (HuM2e antibody 23K12): 1652

Substance: 378 (SLLTECGSLLTEC; epitope peptide) [compound 378]
- Signal (peptides that bind to 23K21 and 8I10) (HuM2e antibody 23K12): 1426

Substance: 489 (MSLLTECGMCLLTEV; epitope peptide) [compound 489]
- Signal (peptides that bind to 23K21 and 8I10) (HuM2e antibody 23K12): 1111

Substance: 604 (SLCTEVGSCLTEV; epitope peptide) [compound 604]
- Signal (peptides that bind to 23K21 and 8I10) (HuM2e antibody 23K12): 824

Substance: 149 (CTEVETPIRNEWGSRSCLTEVETPIRNEWGSRC; epitope peptide) [compound 149]
- Signal (peptides that bind to 23K21 and 8I10) (HuM2e antibody 23K12): 1348

Substance: 322 (SKLTEVETPIRNEWGCRCNDSSD; epitope peptide) [compound 322]
- Signal (peptides that bind to 23K21 and 8I10) (HuM2e antibody 23K12): 1784

Substance: 466 (SCLTEVGCSLLTEV; epitope peptide) [compound 466]
- Signal (peptides that bind to 23K21 and 8I10) (HuM2e antibody 23K12): 1250

Substance: 578 (SLLTERETPIRNEWGCRCNDSSD; epitope peptide) [compound 578]
- Signal (peptides that bind to 23K21 and 8I10) (HuM2e antibody 23K12): 859

Substance: 561 (SCLTEVETPIRNEWGCRCNDSSD; epitope peptide) [compound 561]
- Signal (peptides that bind to 23K21 and 8I10) (HuM2e antibody 23K12): 892

Substance: 462 (SLLTECGCLLTEV; epitope peptide) [compound 462]
- Signal (peptides that bind to 23K21 and 8I10) (HuM2e antibody 23K12): 1259

Substance: 472 (SLLTECGSLCTEV; epitope peptide) [compound 472]
- Signal (peptides that bind to 23K21 and 8I10) (HuM2e antibody 23K12): 1218

Substance: 308 (MSLCTEVGMCLCTCV; epitope peptide) [compound 308]
- Signal (peptides that bind to 23K21 and 8I10) (HuM2e antibody 23K12): 1902

Substance: 483 (CSLLTECGCSLLTEC; epitope peptide) [compound 483]
- Signal (peptides that bind to 23K21 and 8I10) (HuM2e antibody 23K12): 1177

Substance: 526 (MSLLTECGMSCLCEC; epitope peptide) [compound 526]
- Signal (peptides that bind to 23K21 and 8I10) (HuM2e antibody 23K12): 992

Substance: 332 (SALTEVETPIRNEWGCRCNDSSD; epitope peptide) [compound 332]
- Signal (peptides that bind to 23K21 and 8I10) (HuM2e antibody 23K12): 1689

Substance: 382 (CSLLTECGSLLTEV; epitope peptide) [compound 382]
- Signal (peptides that bind to 23K21 and 8I10) (HuM2e antibody 23K12): 1393

Substance: 298 (SLCTEVGSCLCEC; epitope peptide) [compound 298]
- Signal (peptides that bind to 23K21 and 8I10) (HuM2e antibody 23K12): 1967

Substance: 655 (SLYTEVETPIRNEWGCRCNDSSD; epitope peptide) [compound 655]
- Signal (peptides that bind to 23K21 and 8I10) (HuM2e antibody 23K12): 753

Substance: 481 (CSLLTECGMSLCTEV; epitope peptide) [compound 481]
- Signal (peptides that bind to 23K21 and 8I10) (HuM2e antibody 23K12): 1187

Substance: 523 (SLLTEFETPIRNEWGCRCNDSSD; epitope peptide) [compound 523]
- Signal (peptides that bind to 23K21 and 8I10) (HuM2e antibody 23K12): 1009

Substance: 601 (SLLTECGSCLTEV; epitope peptide) [compound 601]
- Signal (peptides that bind to 23K21 and 8I10) (HuM2e antibody 23K12): 830

Substance: 498 (SLLTEMETPIRNEWGCRCNDSSD; epitope peptide) [compound 498]
- Signal (peptides that bind to 23K21 and 8I10) (HuM2e antibody 23K12): 1076

Substance: 323 (SLCTEVGSLLTCV; epitope peptide) [compound 323]
- Signal (peptides that bind to 23K21 and 8I10) (HuM2e antibody 23K12): 1781

Substance: 333 (SLLTCVGSLLTEC; epitope peptide) [compound 333]
- Signal (peptides that bind to 23K21 and 8I10) (HuM2e antibody 23K12): 1683

Substance: 367 (SLCTEVGSLLTEC; epitope peptide) [compound 367]
- Signal (peptides that bind to 23K21 and 8I10) (HuM2e antibody 23K12): 1495

Substance: 1440 (CTEVETPIRNSLLTEVETPCLTEVETPIR; epitope peptide; MISC_FEATURE (1)..(1): C is an attachment site for a CLIP; MISC_FEATURE (10)..(10): N is an attachment site for a CLIP; MISC_FEATURE (11)..(11): S is an attachment site for a CLIP; MISC_FEATURE (29)..(29): R is an attachment site for a CLIP) [compound 1440]
- Signal (peptides that bind to Z3G1) [1]: 2705

Substance: 1254 (MGLLTEVETPIRNEWGCRCN; epitope peptide) [compound 1254]
- Signal (peptides that bind to Z3G1) [1]: 2635

Substance: 1374 (SLLTEVETPIRNECGC; epitope peptide) [compound 1374]
- Signal (peptides that bind to Z3G1) [1]: 1660
